These results are taken from patent US8106046B2, “Cyclopentathiophene modulators of the glucocorticoid receptor, AP-1, and/or NF-κB activity and use thereof” (Bristol-Myers Squibb Company, priority 2008, dated 2012).

Experiment [1] has as its target T1, human glucocorticoid receptor (Homo sapiens, UniProt P04150).
T1 construct: purified human recombinant full-length glucocorticoid receptor (2 nM); purchased Invitrogen Part #2893
T1 sequence (P04150 1-777): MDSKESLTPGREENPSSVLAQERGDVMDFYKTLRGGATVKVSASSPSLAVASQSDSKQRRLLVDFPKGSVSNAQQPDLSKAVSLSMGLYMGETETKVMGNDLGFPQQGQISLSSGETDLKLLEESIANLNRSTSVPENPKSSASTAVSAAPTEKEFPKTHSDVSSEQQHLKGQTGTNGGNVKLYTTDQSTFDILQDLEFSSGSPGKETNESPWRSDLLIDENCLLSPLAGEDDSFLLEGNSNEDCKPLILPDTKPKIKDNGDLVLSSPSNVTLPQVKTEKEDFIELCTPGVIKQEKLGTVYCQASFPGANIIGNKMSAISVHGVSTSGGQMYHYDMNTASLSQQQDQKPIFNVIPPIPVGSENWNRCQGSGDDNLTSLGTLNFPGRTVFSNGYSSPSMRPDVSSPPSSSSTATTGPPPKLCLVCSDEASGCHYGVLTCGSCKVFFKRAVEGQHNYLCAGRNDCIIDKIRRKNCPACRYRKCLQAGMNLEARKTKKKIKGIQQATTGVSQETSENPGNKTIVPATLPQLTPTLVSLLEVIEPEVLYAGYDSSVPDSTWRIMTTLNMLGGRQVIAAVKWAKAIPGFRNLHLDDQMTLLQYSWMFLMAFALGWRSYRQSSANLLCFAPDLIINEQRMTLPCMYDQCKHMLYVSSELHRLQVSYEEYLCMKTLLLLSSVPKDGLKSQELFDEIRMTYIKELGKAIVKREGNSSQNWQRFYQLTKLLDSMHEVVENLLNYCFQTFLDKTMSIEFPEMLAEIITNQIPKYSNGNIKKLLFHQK
Description: Glucocorticoid Receptor Binding Assay (I), fluorescence polarization competitor assay. To be noted: purified human recombinant full-length GR, Fluormone GS Red. As for the experimental part: In order to assess the affinity of test compounds for the human glucocorticoid receptor, a commercially available kit was used (Glucocorticoid Receptor Competitor Assay Kit, Invitrogen Part #2893). Briefly, purified human recombinant full-length glucocorticoid receptor (2 nM) was mixed with fluorescently labeled glucocorticoid (1 nM Fluormone GS Red) in the presence or absence of test compound. After two hour incubation at room temperature in the dark, the fluorescence polarization (FP) of the samples was measured. The FP of a mixture of receptor, fluorescent probe (i.e., Fluormone GS Red) and 5 μM dexamethasone represented background fluorescence or 100% inhibition, whereas, the FP of the mixture without dexamethasone (but in the presence of vehicle) was taken to be 100% binding. […] Test compounds were analyzed in the concentration range from 8.5E-05 μM to 5 μM.
For orientation: Fluorescence polarisation rises when a labelled molecule tumbles more slowly, as on binding a larger partner.

Experiment [2] relates to AP-1 induced transcriptional activity. As to the kind of experiment: Cellular Transrepressional Assay (AP-1 luciferase reporter in A549 cells, PMA activated). The class given is cell-based. The settings on record: 10 ng/ml PMA, 7 hours; for AP-1 Max % inh (Cellular Transrepression Assay): maximum inhibition; for EC50: read-out: AP-1 EC50, nM (Cellular Transrepression Assay). As to the method:
To measure the ability of test molecules to inhibit AP-1 induced transcriptional activity we utilized an A549 cell which was stably transfected with a plasmid containing 7×AP-1 DNA binding sites (pAP-1-Luc plasmid, Stratagene Co. La Jolla, Calif.) followed by the gene for luciferase. Cells were activated with 10 ng/ml of phorbol myristic acid (PMA) plus or minus test molecules for 7 hours. After 7 hours a luciferase reagent was added to measure luciferase enzymatic activity in the cell. After a 10 minute incubation of luciferase reagent with cells, luminescence was measured in a TopCount luminescence counter. Repression of AP-1 activity was calculated as the percentage decrease in the signal induced by PMA alone. Test molecules were analyzed in the concentration range from 0.1 nM to 40 μM. EC50s were determined by using standard curve fitting methods such as Excel fit (Microsoft Co.). An EC50 is the test molecule concentration at which there is a 50% repression of the maximal inhibition of transcription, i.e., a 50% reduction of AP-1 activity.
On the technique in general: Reporter assays use an easily measured gene product as a stand-in for the process of interest.

What is called Ki is the equilibrium dissociation constant of an inhibitor or competing ligand from its target. As usually defined, the EC50 is the concentration giving half of the maximal effect.

Where two headings read alike, the source gives them in different places.

Turning to `CC1(C(=O)Nc2nncs2)Cc2sc(Br)cc2C1c1ccccc1` (racemic) [Example 1, (+/−)-2-Bromo-5-methyl-4-phenyl-N-(1,3,4-thiadiazol-2-yl)-5,6-dihydro-4H-cyclopenta[b]thiophene-5-carboxamide], the inhibition constant (Ki) in experiment [1] was determined as 5.3 nM.
With `CCN(C)C(=O)c1ccc(-c2cc3c(s2)C[C@](C)(C(=O)Nc2nncs2)[C@@H]3c2ccccc2)cc1` (racemic) [Example 4], the “AP-1 Max % inh (Cellular Transrepression Assay)” value (“AP-1 Max % inh” below) in experiment [2] turned out to be 52.82%. The EC50 in experiment [2] (Homo sapiens) came to 35 nM.
Consider `CN(C)C(=O)c1ccc(-c2cc3c(s2)C[C@](C)(C(=O)Nc2nncs2)[C@@H]3c2ccccc2)cc1` (racemic) [Example 5], for which, in experiment [2], the “AP-1 Max % inh” value worked out at 43.98% and the EC50 came out at 14 nM.
In the case of `CN(C)C(=O)c1ccc(-c2cc3c(s2)C[C@](C)(C(=O)Nc2nncs2)[C@@H]3c2ccccc2)cc1Cl` (racemic) [Example 6], in experiment [2], the “AP-1 Max % inh” value amounted to 29.32% and the EC50 was 53.1 nM.
For the molecule `C[C@]1(C(=O)Nc2nncs2)Cc2sc(-c3ccc(C(=O)N4CCOCC4)cc3)cc2[C@H]1c1ccccc1` (racemic) [Example 7], in experiment [2], the “AP-1 Max % inh” value is given as 44.81% and the EC50 is 22.5 nM.
Turning to `C[C@]1(C(=O)Nc2nncs2)Cc2sc(-c3ccc(C(=O)N4CCCC4)cc3)cc2[C@H]1c1ccccc1` (racemic) [Example 8], in experiment [2], the “AP-1 Max % inh” value worked out at 42.74% and the EC50 is 42.1 nM.
With `CN(C)C(=O)c1ccc(-c2cc3c(s2)C[C@](C)(C(=O)Nc2nncs2)[C@@H]3c2ccccc2)cc1F` (racemic) [Example 9], in experiment [2], the “AP-1 Max % inh” value was 26.03% and the EC50 was determined as 40.2 nM.
For `CCN(C)C(=O)c1ccc(-c2cc3c(s2)C[C@](C)(C(=O)Nc2nncs2)[C@@H]3c2ccccc2)cc1F` (racemic) [Example 10], in experiment [2], the “AP-1 Max % inh” value is given as 27.94% and the EC50 came out at 24.2 nM.
Regarding `CCN(C)C(=O)c1ccc(-c2cc3c(s2)CC(C)(C(=O)Nc2nncs2)C3c2ccccc2)cc1Cl` (racemic) [Example 11], the Ki in experiment [1] is 1.9 nM.
For `CC(C)NC(=O)c1nnc(NC(=O)C2(C)Cc3sc(-c4ccc(C(=O)N5CCOCC5)cc4)cc3C2c2ccccc2)s1` (racemic) [Example 22], in experiment [2], the “AP-1 Max % inh” value is given as 55.76% and the EC50 was found to be 34.5 nM.
For `Cc1nnc(NC(=O)C2(C)Cc3sc(-c4ccc(C(=O)N5CCOCC5)cc4)cc3C2c2ccccc2)s1` (racemic) [Example 23], in experiment [2], the “AP-1 Max % inh” value is reported as 29.00% and the EC50 was determined as 452 nM.
Regarding `C[C@]1(C(=O)Nc2nncs2)Cc2sc(-c3ccc(C(=O)N4CCOCC4)cc3)cc2[C@H]1c1cccc(F)c1` (relative stereo) [Example 24, (Cis)-4-(3-fluorophenyl)-5-methyl-2-(4-(morpholine-4-carbonyl)phenyl)-N-(1,3,4-thiadiazol-2-yl)-5,6-dihydro-4H-cyclopenta[b]thiophene-5-carboxamide], the “AP-1 Max % inh” value in experiment [2] amounted to 37.80%. For the same molecule, the EC50 in experiment [2] (Homo sapiens) was determined as 23.1 nM.
Take `C[C@]1(C(=O)Nc2nncs2)Cc2sc(Br)cc2[C@H]1c1ccccc1` [Example 2, (4S,5S)-2-Bromo-5-methyl-4-phenyl-N-(1,3,4-thiadiazol-2-yl)-5,6-dihydro-4H-cyclopenta[b]thiophene-5-carboxamide]: the inhibition constant Ki in experiment [1] was determined as 5.34 nM.
In the case of `C[C@@]1(C(=O)Nc2nncs2)Cc2sc(Br)cc2[C@@H]1c1ccccc1` [Example 3, (4R,5R)-2-Bromo-5-methyl-4-phenyl-N-(1,3,4-thiadiazol-2-yl)-5,6-dihydro-4H-cyclopenta[b]thiophene-5-carboxamide], the Ki in experiment [1] stood at 1.8 nM.
For `CN(C)C(=O)c1ccc(-c2cc3c(s2)C[C@](C)(C(=O)Nc2nncs2)[C@@H]3c2ccccc2)cc1` [Example 12], in experiment [2], the “AP-1 Max % inh” value was found to be 43.11% and the EC50 was 29.1 nM.
As for `C[C@]1(C(=O)Nc2nncs2)Cc2sc(-c3ccc(C(=O)N4CCOCC4)cc3)cc2[C@H]1c1ccccc1` [Example 13], in experiment [2], the “AP-1 Max % inh” value is listed as 50.68% and the EC50 worked out at 23.9 nM.
As for `CN(C)C(=O)c1ccc(-c2cc3c(s2)C[C@](C)(C(=O)Nc2nncs2)[C@@H]3c2ccccc2)cc1Cl` [Example 14], in experiment [2], the “AP-1 Max % inh” value came out at 42.02% and the EC50 was determined as 63.7 nM.
`CCN(C)C(=O)c1ccc(-c2cc3c(s2)C[C@](C)(C(=O)Nc2nncs2)[C@@H]3c2ccccc2)cc1` [Example 15]: in experiment [2], the “AP-1 Max % inh” value is reported as 53.20% and the EC50 amounted to 18.8 nM.
Regarding `C[C@]1(C(=O)Nc2nncs2)Cc2sc(-c3ccc(C(=O)N4CCCC4)cc3)cc2[C@H]1c1ccccc1` [Example 16], in experiment [2], the “AP-1 Max % inh” value was 56.78% and the EC50 came to 290 nM.
Take `C[C@@]1(C(=O)Nc2nncs2)Cc2sc(-c3ccc(C(=O)N4CCOCC4)cc3)cc2[C@@H]1c1ccccc1` [Example 18]: in experiment [2], the “AP-1 Max % inh” value is recorded as 29.81% and the EC50 was found to be 27.3 nM.
Taken in the same sequence, the figures for `CN(C)C(=O)c1ccc(-c2cc3c(s2)C[C@@](C)(C(=O)Nc2nncs2)[C@H]3c2ccccc2)cc1` [Example 19] were 38.78% and 21.8 nM.
In the case of `C[C@]1(C(=O)Nc2nnc(C(=O)NC3CC3)s2)Cc2sc(-c3ccc(C(=O)N4CCOCC4)cc3)cc2[C@H]1c1ccccc1` [Example 21], the “AP-1 Max % inh” value in experiment [2] came to 60.04%. Besides, the EC50 in experiment [2] (Homo sapiens) stood at 22.8 nM.
